Experimental data reported in PubChem BioAssay (NCI).
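Results reflect a 48-hour exposure of cells in 96-well plates to compound at five concentrations. Abbreviation: GI50, concentration required for 50% inhibition of growth. TGI: concentration producing complete growth inhibition.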

Columns and labels:
Test in all cases: NCI anticancer screen, dose series, 48 h
SK-MEL-2 melanoma = system: SK-MEL-2 melanoma
UACC-62 melanoma = system: UACC-62 melanoma
RPMI-8226 leukemia = system: RPMI-8226 leukemia
KM12 colon = system: KM12 colon
NCI-H460 lung = system: NCI-H460 lung
SF-268 CNS = system: SF-268 CNS
CCRF-CEM leukemia = system: CCRF-CEM leukemia
RXF 393 renal = system: RXF 393 renal
DU-145 prostate = system: DU-145 prostate
HS 578T breast = system: HS 578T breast

Nn1c(=O)n(Cc2ccccc2)n(-c2ccccc2)c1=O
TGI (SK-MEL-2 melanoma): > 100 µM | TGI (UACC-62 melanoma): > 100 µM | TGI (RPMI-8226 leukemia): > 100 µM | TGI (KM12 colon): > 100 µM | TGI (NCI-H460 lung): > 100 µM | TGI (SF-268 CNS): > 100 µM | TGI (CCRF-CEM leukemia): > 100 µM | TGI (RXF 393 renal): > 100 µM

Oc1cccnc1CN1CCCCC1
TGI (SK-MEL-2 melanoma): > 100 µM | TGI (UACC-62 melanoma): > 100 µM | TGI (RPMI-8226 leukemia): > 100 µM | TGI (KM12 colon): > 100 µM | TGI (NCI-H460 lung): > 100 µM | TGI (DU-145 prostate): > 100 µM | TGI (SF-268 CNS): > 100 µM | TGI (HS 578T breast): > 100 µM | TGI (RXF 393 renal): > 100 µM

COc1ccc(-c2n[nH]nc2-c2cc(OC)c(OC)c(OC)c2)cc1
GI50 (SK-MEL-2 melanoma): < 10 nM | TGI (SK-MEL-2 melanoma): 43.4 µM | GI50 (UACC-62 melanoma): < 10 nM | TGI (UACC-62 melanoma): 24.6 µM | GI50 (RPMI-8226 leukemia): < 10 nM | TGI (RPMI-8226 leukemia): > 32.4 µM | GI50 (KM12 colon): < 10 nM | TGI (KM12 colon): 0.0445 µM | GI50 (NCI-H460 lung): < 10 nM | TGI (NCI-H460 lung): 26.3 µM | GI50 (SF-268 CNS): 15.6 nM | TGI (SF-268 CNS): > 100 µM | GI50 (CCRF-CEM leukemia): < 10 nM | TGI (CCRF-CEM leukemia): > 40.8 µM | GI50 (HS 578T breast): < 10 nM | TGI (HS 578T breast): > 83.9 µM | GI50 (RXF 393 renal): < 10 nM | TGI (RXF 393 renal): 26.2 µM

O=C(Cc1ccccc1)NN1C(=O)C(Cl)C1c1cc(Br)ccc1O (centres undefined)
TGI (SK-MEL-2 melanoma): > 100 µM | TGI (UACC-62 melanoma): 30.7 µM | TGI (RPMI-8226 leukemia): > 100 µM | TGI (KM12 colon): > 100 µM | TGI (NCI-H460 lung): > 100 µM | TGI (SF-268 CNS): 50 µM | TGI (CCRF-CEM leukemia): > 100 µM | TGI (RXF 393 renal): > 100 µM

COc1cc(C(C)O)c[n+](CCc2c[nH]c3ccccc23)c1 (centres undefined)
TGI (SK-MEL-2 melanoma): > 100 µM | TGI (UACC-62 melanoma): > 100 µM | TGI (RPMI-8226 leukemia): > 100 µM | TGI (KM12 colon): > 100 µM | TGI (NCI-H460 lung): > 100 µM | TGI (SF-268 CNS): > 100 µM | TGI (CCRF-CEM leukemia): > 100 µM | TGI (RXF 393 renal): > 100 µM

CCOC(=O)C1=C(C)N(NC(=O)Nc2ccccc2)C(=O)C1=P(c1ccccc1)(c1ccccc1)c1ccccc1
TGI (SK-MEL-2 melanoma): 98.3 µM | TGI (UACC-62 melanoma): 89.9 µM | TGI (RPMI-8226 leukemia): 82.5 µM | TGI (NCI-H460 lung): > 100 µM | TGI (SF-268 CNS): > 100 µM | TGI (CCRF-CEM leukemia): 96.7 µM | TGI (RXF 393 renal): 72.5 µM

C[C@@]12CC=C3c4nc(Nc5cccc(O)c5)sc4CC[C@]3(C)[C@H]1CC[C@]1(C)C(=O)CC[C@@H]21
GI50 (SK-MEL-2 melanoma): 2860 nM | TGI (SK-MEL-2 melanoma): 9.99 µM | GI50 (UACC-62 melanoma): 2080 nM | TGI (UACC-62 melanoma): 5.25 µM | GI50 (RPMI-8226 leukemia): 669 nM | TGI (RPMI-8226 leukemia): 4.52 µM | GI50 (NCI-H460 lung): 2660 nM | TGI (NCI-H460 lung): 7.25 µM | GI50 (SF-268 CNS): 2100 nM | TGI (SF-268 CNS): 7.12 µM | GI50 (CCRF-CEM leukemia): 1830 nM | TGI (CCRF-CEM leukemia): > 100 µM | GI50 (HS 578T breast): 2430 nM | TGI (HS 578T breast): > 100 µM | GI50 (RXF 393 renal): 666 nM | TGI (RXF 393 renal): 2.35 µM

CC(C)(C)c1cc(C(C)(C)C)cc(S(=O)(=O)Nc2cc3ccccc3cc2C(=O)NCCN)c1
GI50 (SK-MEL-2 melanoma): 1920 nM | TGI (SK-MEL-2 melanoma): 3.87 µM | GI50 (UACC-62 melanoma): 1820 nM | TGI (UACC-62 melanoma): 3.4 µM | GI50 (KM12 colon): 1790 nM | TGI (KM12 colon): 3.37 µM | GI50 (NCI-H460 lung): 2100 nM | TGI (NCI-H460 lung): 4.12 µM | GI50 (DU-145 prostate): 1820 nM | TGI (DU-145 prostate): 3.47 µM | GI50 (SF-268 CNS): 1680 nM | TGI (SF-268 CNS): 3.35 µM | GI50 (CCRF-CEM leukemia): 2550 nM | TGI (CCRF-CEM leukemia): 6.41 µM | GI50 (HS 578T breast): 2170 nM | TGI (HS 578T breast): 4.89 µM | GI50 (RXF 393 renal): 1790 nM | TGI (RXF 393 renal): 3.18 µM

C1=CC2SSSC2C1 (centres undefined)
TGI (SK-MEL-2 melanoma): > 100 µM | TGI (UACC-62 melanoma): > 100 µM | TGI (RPMI-8226 leukemia): > 100 µM | TGI (KM12 colon): > 100 µM | TGI (NCI-H460 lung): > 100 µM | TGI (SF-268 CNS): > 100 µM | TGI (CCRF-CEM leukemia): > 100 µM | TGI (RXF 393 renal): > 100 µM

COC(=O)/C(=N\Nc1nnc(C)n1N)C(C#N)c1ccc(Cl)cc1 (centres undefined)
TGI (SK-MEL-2 melanoma): > 100 µM | TGI (UACC-62 melanoma): > 100 µM | TGI (RPMI-8226 leukemia): > 100 µM | TGI (KM12 colon): > 100 µM | TGI (NCI-H460 lung): > 100 µM | TGI (SF-268 CNS): > 100 µM | TGI (RXF 393 renal): > 100 µM

CCOC(=O)CC1(C(=O)OCC)c2[nH]c3ccccc3c2CCN1Cc1ccccc1 (centres undefined)
TGI (SK-MEL-2 melanoma): 32.8 µM | TGI (UACC-62 melanoma): 32.2 µM | TGI (KM12 colon): 40.1 µM | TGI (NCI-H460 lung): 42.6 µM | TGI (SF-268 CNS): 37.7 µM | TGI (CCRF-CEM leukemia): > 100 µM | TGI (RXF 393 renal): 32.7 µM

O=C1CCN2C(=O)CCN12
TGI (SK-MEL-2 melanoma): > 100 µM | TGI (UACC-62 melanoma): > 100 µM | TGI (RPMI-8226 leukemia): > 100 µM | TGI (KM12 colon): > 100 µM | TGI (NCI-H460 lung): > 100 µM | TGI (SF-268 CNS): > 100 µM | TGI (CCRF-CEM leukemia): > 100 µM

O=S(=O)(N=S(c1ccccc1)c1ccccc1)c1ccccc1
TGI (RPMI-8226 leukemia): > 100 µM | TGI (KM12 colon): > 100 µM | TGI (NCI-H460 lung): > 100 µM | TGI (DU-145 prostate): > 100 µM | TGI (SF-268 CNS): > 100 µM | TGI (CCRF-CEM leukemia): > 100 µM | TGI (RXF 393 renal): > 100 µM

Cc1ccc(C2=C(c3ccccc3)C(Br)(c3ccc(C)cc3)C(c3ccccc3)=C2c2ccc(C)cc2)cc1
TGI (SK-MEL-2 melanoma): > 100 µM | TGI (UACC-62 melanoma): > 100 µM | TGI (RPMI-8226 leukemia): > 100 µM | TGI (KM12 colon): > 100 µM | TGI (NCI-H460 lung): > 100 µM | TGI (SF-268 CNS): > 100 µM | TGI (CCRF-CEM leukemia): > 100 µM

COc1cc(C=C2C(=O)NC(=O)NC2=O)cc(OC)c1OC
TGI (SK-MEL-2 melanoma): > 100 µM | TGI (UACC-62 melanoma): > 100 µM | TGI (RPMI-8226 leukemia): > 100 µM | TGI (KM12 colon): > 100 µM | TGI (NCI-H460 lung): > 100 µM | TGI (SF-268 CNS): > 100 µM | TGI (CCRF-CEM leukemia): > 100 µM | TGI (RXF 393 renal): > 100 µM

Cc1nc(N)sc1C(=O)/C=C\c1ccc2c(c1)OCO2
TGI (SK-MEL-2 melanoma): > 100 µM | TGI (UACC-62 melanoma): > 100 µM | TGI (RPMI-8226 leukemia): > 100 µM | TGI (KM12 colon): > 100 µM | TGI (NCI-H460 lung): > 100 µM | TGI (SF-268 CNS): > 100 µM | TGI (CCRF-CEM leukemia): > 100 µM | TGI (RXF 393 renal): > 100 µM

COC(=O)C1=C(C)N(NC(=O)OC(C)(C)C)C(=O)C1=P(c1ccccc1)(c1ccccc1)c1ccccc1
TGI (SK-MEL-2 melanoma): > 100 µM | TGI (UACC-62 melanoma): > 100 µM | TGI (RPMI-8226 leukemia): > 100 µM | TGI (KM12 colon): > 100 µM | TGI (NCI-H460 lung): > 100 µM | TGI (SF-268 CNS): > 100 µM | TGI (CCRF-CEM leukemia): > 100 µM | TGI (RXF 393 renal): > 100 µM

OC[C@H]1CCCC1O (some centres undefined)
TGI (SK-MEL-2 melanoma): > 100 µM | TGI (UACC-62 melanoma): > 100 µM | TGI (RPMI-8226 leukemia): > 100 µM | TGI (KM12 colon): > 100 µM | TGI (NCI-H460 lung): > 100 µM | TGI (DU-145 prostate): > 100 µM | TGI (SF-268 CNS): > 100 µM | TGI (CCRF-CEM leukemia): > 100 µM | TGI (RXF 393 renal): > 100 µM

Cc1cn(C2CC(O)C(CO)O2)c(=O)n2nnnc12 (centres undefined)
TGI (SK-MEL-2 melanoma): > 100 µM | TGI (UACC-62 melanoma): > 100 µM | TGI (RPMI-8226 leukemia): > 100 µM | TGI (KM12 colon): > 100 µM | TGI (NCI-H460 lung): > 100 µM | TGI (SF-268 CNS): > 100 µM | TGI (CCRF-CEM leukemia): > 100 µM

Cc1cc(Cl)ccc1N=C1NC(=O)C(CC(=O)Nc2ccc([N+](=O)[O-])cc2[N+](=O)[O-])S1 (centres undefined)
TGI (SK-MEL-2 melanoma): 46.1 µM | TGI (UACC-62 melanoma): 64.7 µM | TGI (RPMI-8226 leukemia): 53.6 µM | TGI (KM12 colon): > 100 µM | TGI (NCI-H460 lung): 84.9 µM | TGI (SF-268 CNS): > 100 µM | TGI (CCRF-CEM leukemia): > 100 µM

CCC[CH2][Sn]1([CH2]CCC)[O]CC(CN2CCCC2)[O]1 (centres undefined)
GI50 (SK-MEL-2 melanoma): 13800 nM | TGI (SK-MEL-2 melanoma): 27.1 µM | GI50 (UACC-62 melanoma): 13600 nM | TGI (UACC-62 melanoma): 30.5 µM | GI50 (RPMI-8226 leukemia): 7440 nM | TGI (RPMI-8226 leukemia): 44.1 µM | GI50 (KM12 colon): 16100 nM | TGI (KM12 colon): 36.4 µM | GI50 (NCI-H460 lung): 34600 nM | TGI (NCI-H460 lung): > 100 µM | GI50 (CCRF-CEM leukemia): 3330 nM | TGI (CCRF-CEM leukemia): 21.3 µM | GI50 (RXF 393 renal): 22400 nM | TGI (RXF 393 renal): 37.8 µM

NCCCCN(CCCN)/[N+]([O-])=N\O
TGI (SK-MEL-2 melanoma): > 100 µM | TGI (UACC-62 melanoma): > 100 µM | TGI (RPMI-8226 leukemia): > 100 µM | TGI (KM12 colon): > 100 µM | TGI (NCI-H460 lung): > 100 µM | TGI (SF-268 CNS): > 100 µM | TGI (CCRF-CEM leukemia): > 100 µM | TGI (RXF 393 renal): > 100 µM
